Source: publication PMC5681660, “Reduced hepatitis B and D viral entry using clinically applied drugs as novel inhibitors of the bile acid transporter NTCP” (Scientific Reports, 2017)
Where a name gives a salt, the structure may show the parent alone. Read-outs that look alike come from different tables or passages of the source.

Tests used:
human NTCP [1] = biological target: T1, human NTCP (Homo sapiens, UniProt Q14973); assay: Screening taurocholate uptake assay (96-well, [14C]taurocholate, 10 µM drug)
T1 sequence (Q14973 1-349): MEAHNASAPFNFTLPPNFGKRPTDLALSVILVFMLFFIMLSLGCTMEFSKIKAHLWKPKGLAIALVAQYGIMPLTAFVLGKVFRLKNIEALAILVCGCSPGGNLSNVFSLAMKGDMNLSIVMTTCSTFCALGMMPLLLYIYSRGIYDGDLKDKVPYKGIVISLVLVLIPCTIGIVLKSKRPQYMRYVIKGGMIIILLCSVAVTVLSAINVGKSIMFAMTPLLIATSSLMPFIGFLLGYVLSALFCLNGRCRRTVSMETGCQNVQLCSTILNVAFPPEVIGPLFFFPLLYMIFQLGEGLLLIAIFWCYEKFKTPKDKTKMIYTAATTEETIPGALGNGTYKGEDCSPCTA

human NTCP [2] = biological target: T1, human NTCP; assay: Screening fluorescent competitive Myrcludex B-FITC binding assay (96-well, 10 µM drug)
[3] = combined ranking from functional and binding screening assays
[4] = screen, 10 µM drug, taurocholate uptake
[5] = screen, 10 µM drug, Myrcludex B-FITC binding
[6] = Prestwick library screen, 10 µM drug, B-score of taurocholate uptake
[7] = combined ranking from functional and binding assay B-scores
[8] = Prestwick library screen, 10 µM drug, B-score of Myrcludex B-FITC binding
[9] = Prestwick library screen, taurocholate uptake, 10 µM drug
[10] = ranking score beside the functional and binding assay B-scores of the screen
[11] = Prestwick library screen, Myrcludex B-FITC binding, 10 µM drug

Row | SMILES | B-score functional assay (human NTCP [1]; [6]) | Ranking score (human NTCP [1]; [7]) | B-score binding assay (human NTCP [2]; [8]) | B-score functional assay (human NTCP [1]; [9]) | Ranking score (human NTCP [1]; [10]) | B-score binding assay (human NTCP [2]; [11]) | further results
1 | COc1cccc(C2(O)CCCCC2CN(C)C)c1.Cl (stereo not drawn) [Tramadol hydrochloride] |  |  |  |  |  |  | Ranking score (human NTCP [1]; [3]): 410.66; B-score functional assay (human NTCP [1]; [4]): 0.906; B-score binding assay (human NTCP [2]; [5]): -1.463
2 | CCCC(=O)Nc1ccc(OCC(O)CNC(C)C)c(C(C)=O)c1 (stereo not drawn) [Acebutolol hydrochloride] | 1.681 | 904.34 | 0.049 |  |  |  | 
3 | CN1CCC(=C2c3ccccc3CC(=O)c3sccc32)CC1 [Ketotifen fumarate] |  |  |  |  |  |  | Ranking score (human NTCP [1]; [3]): 425.088; B-score functional assay (human NTCP [1]; [4]): 0.006; B-score binding assay (human NTCP [2]; [5]): -0.838
4 | c1ccc(CC2=NCCN2)cc1 [Tolazoline hydrochloride] | 4.096 | 929.251 | 0.03 |  |  |  | 
5 | Nc1nc2c(ncn2COCCO)c(=O)[nH]1 [Acyclovir] |  |  |  | 0.026 | 658.696 | 0 | 
6 | Cl.N=C(N=C(N)N)N1CCOCC1 [Moroxidine hydrochloride] | 1.373 | 1132.99 | 1.496 |  |  |  | 
7 | COc1ccc(C(=O)N2CCCC2=O)cc1 [Aniracetam] |  |  |  |  |  |  | Ranking score (human NTCP [1]; [3]): 340.074; B-score functional assay (human NTCP [1]; [4]): -1.196; B-score binding assay (human NTCP [2]; [5]): -0.157
8 | CC(=O)Oc1ccccc1C(=O)Oc1ccccc1C(=O)O [Acetylsalicylsalicylic acid] |  |  |  | 0.347 | 734.743 | -0.007 | 
9 | CC(C)NC[C@@H](O)COc1cccc2ccccc12.Cl [(R)-Propranolol hydrochloride] |  |  |  |  |  |  | B-score functional assay (human NTCP [1]): 1.016; Ranking score (human NTCP [1]): 935.855; B-score binding assay (human NTCP [2]): 0.252
10 | CC(CN1c2ccccc2Sc2ccccc21)N(C)C (stereo not drawn) [Promethazine hydrochloride] | -0.002 | 866.133 | 1.811 |  |  |  | 
11 | CCCCC(=O)N(Cc1ccc(-c2ccccc2-c2nnn[nH]2)cc1)[C@H](C(=O)O)C(C)C [Valsartan] |  |  |  | 0.156 |  |  | Ranking score (human NTCP [1]): 721.211; B-score binding assay (human NTCP [2]): 0.016
12 | CC(C)(C(=O)c1cccnc1)c1cccnc1 [Metyrapone] |  |  |  | 0.78 | 759.235 | -0.063 | 
13 | CC(C)C[C@H]1C(=O)N2CCC[C@H]2[C@]2(O)O[C@](NC(=O)[C@@H]3C=C4c5cccc6[nH]c(Br)c(c56)C[C@H]4N(C)C3)(C(C)C)C(=O)N12.CS(=O)(=O)O [Bromocryptine mesylate] |  |  |  |  |  |  | Ranking score (human NTCP [1]; [3]): 349.571; B-score functional assay (human NTCP [1]; [4]): -0.957; B-score binding assay (human NTCP [2]; [5]): -0.252
14 | c1ccc(CN(CC2=NCCN2)c2ccccc2)cc1 [Antazoline hydrochloride] | 1.194 | 927.719 | 0.166 |  |  |  | 
15 | CCN(CC)CCCC(C)Nc1ccnc2cc(Cl)ccc12 (stereo not drawn) [Chloroquine diphosphate] |  |  |  |  |  |  | B-score functional assay (human NTCP [1]): 0.222; Ranking score (human NTCP [1]): 726.833; B-score binding assay (human NTCP [2]): 0.002
16 | O=C(Cn1ccnc1[N+](=O)[O-])NCCO [Etanidazole] |  |  |  | -0.015 | 680.728 | 0.108 | 
17 | C[N+]1(CCCCC[N+]2(C)CCCC2)CCCC1.O=C([O-])C(O)C(O)C(=O)O.O=C([O-])C(O)C(O)C(=O)O [Pentolinium bitartrate] |  |  |  |  |  |  | Ranking score (human NTCP [1]; [3]): 451.889; B-score functional assay (human NTCP [1]; [4]): -0.089; B-score binding assay (human NTCP [2]; [5]): -0.512
18 | COc1cc(NS(=O)(=O)c2ccc(N)cc2)ncn1 [Sulfamonomethoxine] |  |  |  | -0.097 | 680.363 | 0.362 | 
19 | Nc1ccc(S(=O)(=O)Nc2ccnn2-c2ccccc2)cc1 [Sulfaphenazole] | 0.483 | 867.854 | 0.287 |  |  |  | 
20 | CC(C)NC[C@@H](O)c1ccc(O)c(O)c1.O=C(O)C(O)C(O)C(=O)O [(+)-Isoproterenol (+)-bitartrate salt] |  |  |  | 2.072 | 708.011 | -0.368 | 
21 | COC(=O)Nc1nc2cc(C(=O)c3ccc(F)cc3)ccc2[nH]1 [Flubendazol] |  |  |  | 1.185 | 683.74 | -0.335 | 
22 | Cc1ccc(C)c(OCCCC(C)(C)C(=O)O)c1 [Gemfibrozil] |  |  |  |  |  |  | Ranking score (human NTCP [1]; [3]): 289.348; B-score functional assay (human NTCP [1]; [4]): 0.85; B-score binding assay (human NTCP [2]; [5]): -2.286
23 | CCN[C@H]1CN(CCCOC)S(=O)(=O)c2sc(S(N)(=O)=O)cc21 [Brinzolamide] |  |  |  | 0.266 | 792.227 | 0.124 | 

Row | SMILES | B-score functional assay (human NTCP [1]; [6]) | Ranking score (human NTCP [1]; [7]) | B-score binding assay (human NTCP [2]; [8]) | B-score functional assay (human NTCP [1]; [9]) | Ranking score (human NTCP [1]; [10]) | B-score binding assay (human NTCP [2]; [11]) | further results
24 | CN(C)CCC(c1ccc(Cl)cc1)c1ccccn1 (stereo not drawn) [Chlorpheniramine maleate] | 1.245 | 1106.99 | 1.318 |  |  |  | 
25 | CC1CC(OC(=O)C(O)c2ccccc2)CC(C)(C)N1C (stereo not drawn) [Eucatropine hydrochloride] | 0.117 | 950.91 | 1.847 |  |  |  | 
26 | Nc1ccc(O)c(C(=O)O)c1 [Mesalamine] |  |  |  | -0.331 | 739.887 | 2.828 | 
27 | c1coc(CNc2ncnc3nc[nH]c23)c1 [6-Furfurylaminopurine] |  |  |  | 2.357 | 696.25 | -0.434 | 
28 | C[C@]12CC[C@H]3[C@@H](CCC4=CC(=O)CC[C@@H]43)[C@@H]1CC[C@@H]2O [Nandrolone] |  |  |  |  |  |  | B-score functional assay (human NTCP [1]): 0.05; Ranking score (human NTCP [1]): 852.366; B-score binding assay (human NTCP [2]): 0.982
29 | OC(CCCN1CCCCC1)(c1ccccc1)c1ccccc1 [Diphenidol hydrochloride] |  |  |  |  |  |  | Ranking score (human NTCP [1]; [3]): 367.214; B-score functional assay (human NTCP [1]; [4]): -1.4; B-score binding assay (human NTCP [2]; [5]): 0.054
30 | C(#CCN1CCCC1)CN1CCCC1.Cl.Cl [Tremorine dihydrochloride] |  |  |  |  |  |  | Ranking score (human NTCP [1]; [3]): 382.832; B-score functional assay (human NTCP [1]; [4]): -2.034; B-score binding assay (human NTCP [2]; [5]): 1.525
31 | CC(C)NC[C@H](O)COc1ccc(CC(N)=O)cc1 [(S)-(-)-Atenolol] |  |  |  |  |  |  | Ranking score (human NTCP [1]; [3]): 412.97; B-score functional assay (human NTCP [1]; [4]): -0.386; B-score binding assay (human NTCP [2]; [5]): -0.394
32 | Cc1[nH]c(=O)c(C#N)cc1-c1ccncc1 [Milrinone] | 0.094 | 877.639 | 0.945 |  |  |  | 
33 | Fc1ccc(C(c2ccc(F)cc2)N2CCN(C/C=C/c3ccccc3)CC2)cc1 [Flunarizine dihydrochloride] |  |  |  | 0.875 | 816.419 | 0.001 | 
34 | CCCCC(=O)O[C@H]1CC[C@H]2[C@@H]3CCc4cc(O)ccc4[C@H]3CC[C@]12C [Estradiol Valerate] |  |  |  | -0.153 | 776.511 | 1.969 | 
35 | CC(C)Cn1cnc2c(N)nc3ccccc3c21 [Imiquimod] |  |  |  |  |  |  | B-score functional assay (human NTCP [1]): -0.019; Ranking score (human NTCP [1]): 554.076; B-score binding assay (human NTCP [2]): -0.174
36 | CCOC(=O)c1cncn1[C@H](C)c1ccccc1 [Etomidate] | 5.522 | 852.333 | -0.068 |  |  |  | 
37 | CN(C)/N=N/c1[nH]cnc1C(N)=O [Dacarbazine] | 0.084 | 928.431 | 1.762 |  |  |  | 
38 | CCn1cc(C(=O)O)c(=O)c2cc(F)c(N3CCNC(C)C3)c(F)c21 (stereo not drawn) [Lomefloxacin hydrochloride] |  |  |  | 0.226 | 831.882 | 0.323 | 
39 | CCN(CC)C(=O)Nc1ccc(OCC(O)CNC(C)(C)C)c(C(C)=O)c1 (stereo not drawn) [Celiprolol HCl] | 0.793 | 1068.26 | 1.474 |  |  |  | 
40 | CC(=O)OCC1=C(C(=O)O)N2C(=O)[C@@H](N)[C@H]2SC1 [Cephalosporanic acid, 7-amino] | 0.531 | 845.501 | 0.15 |  |  |  | 
41 | O=C(O)CCc1nc(-c2ccccc2)c(-c2ccccc2)o1 [Oxaprozin] |  |  |  |  |  |  | Ranking score (human NTCP [1]; [3]): 341.015; B-score functional assay (human NTCP [1]; [4]): -0.957; B-score binding assay (human NTCP [2]; [5]): -0.29
42 | CC(C)(C)NC(=O)[C@@H]1CN(Cc2cccnc2)CCN1C[C@@H](O)C[C@@H](Cc1ccccc1)C(=O)N[C@H]1c2ccccc2C[C@H]1O [Indinavir sulfate] |  |  |  | -0.197 | 710.601 | 1.008 | 
43 | NS(=O)(=O)c1cc(Cl)c(Cl)c(S(N)(=O)=O)c1 [Dichlorphenamide] | 0.709 | 1091.62 | 2.215 |  |  |  | 
44 | CCn1cc(C(=O)O)c(=O)c2cc(F)c(N3CCNCC3)nc21 [Enoxacin] | 3.277 | 1072.03 | 0.523 |  |  |  | 
45 | CCC1NC(=O)c2cc(S(N)(=O)=O)c(Cl)cc2N1 (stereo not drawn) [Quinethazone] |  |  |  | 1.708 | 787.128 | -0.124 | 
46 | C[C@]12CCC(=O)C=C1C=C[C@@H]1[C@@H]2CC[C@@]2(C)[C@H]1CC[C@@]21CCC(=O)O1 [Canrenone] |  |  |  |  |  |  | Ranking score (human NTCP [1]; [3]): 379.419; B-score functional assay (human NTCP [1]; [4]): -0.551; B-score binding assay (human NTCP [2]; [5]): -0.43
